The test system of the experiment is HepG2 + statin, PCSK9 mRNA qPCR, 24 h. Briefly: PCSK9 mRNA change in statin-treated cells, late-stage follow-up, mechanism study for Trib1 inducer project, cell-based, HepG2, RT-PCR, atorvastatin or simvastatin, cherry-pick (AID 1053153).

With `CN1C(=O)c2cc(NC(=O)c3ccc(C(F)(F)F)cc3)ccc2OC[C@@H]2O[C@H](CC(=O)NC3Cc4ccccc4C3)CC[C@@H]21`, the fold change is 2.
In the case of `CN1C(=O)c2cc(NC(=O)c3ccc(C(F)(F)F)cc3)ccc2OC[C@@H]2O[C@@H](CC(=O)NC3Cc4ccccc4C3)CC[C@@H]21` it was 10.

The record behind these values is PubChem BioAssay AID1053153 (Broad Institute, 2014).
